# In PubChem BioAssay (NCI):
#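 The compound was tested at five concentrations on cells cultured in 96-well plates, with a 48-hour exposure period. TGI denotes the concentration required for complete inhibition of growth.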
# What was measured:
# Experiment in all cases: NCI anticancer screen, dose series, 48 h
# [1] = tested on: OVCAR-4 ovarian
# [2] = tested on: NCI-H460 lung
# [3] = tested on: A549 NSCLC
# [4] = tested on: SF-539 CNS
# [5] = tested on: K-562 leukemia
# [6] = tested on: A498 renal
# [7] = tested on: HOP-62 NSCLC
# [8] = tested on: TK-10 renal
# [9] = tested on: MDA-MB-435
# [10] = tested on: RXF 393 renal
# [11] = tested on: HT29 colon
# [12] = tested on: NCI/ADR-RES ovarian
# [13] = tested on: BT-549 breast
# [14] = tested on: UACC-62 melanoma
# [15] = tested on: SN12C renal
# [16] = tested on: MDA-MB-231 breast
# [17] = tested on: SF-268 CNS
# [18] = tested on: 786-0 renal
# [19] = tested on: OVCAR-8 ovarian
# [20] = tested on: UACC-257 melanoma
# [21] = tested on: HCC-2998 colon
# [22] = tested on: KM12 colon
# [23] = tested on: HOP-92 NSCLC
# [24] = tested on: CAKI-1 renal
# [25] = tested on: MDA-N
# [26] = tested on: IGROV1 ovarian
# [27] = tested on: SNB-19 CNS
# [28] = tested on: OVCAR-5 ovarian
# [29] = tested on: HCT-116 colon
# [30] = tested on: SW-620 colon
# [31] = tested on: MCF7 breast
# [32] = tested on: DU-145 prostate
# [33] = tested on: NCI-H226 lung
# [34] = tested on: SNB-75 CNS
# [35] = tested on: SK-MEL-2 melanoma
# [36] = tested on: NCI-H23 lung
# [37] = tested on: T-47D breast
# [38] = tested on: SK-MEL-5 melanoma
# [39] = tested on: COLO 205 colon
# [40] = tested on: HCT-15 colon
# [41] = tested on: UO-31 renal
# [42] = tested on: SF-295 CNS
# [43] = tested on: PC-3 prostate
# [44] = tested on: ACHN renal
# [45] = tested on: EKVX NSCLC
# [46] = tested on: SK-OV-3 ovarian
# [47] = tested on: SK-MEL-28 melanoma
# [48] = tested on: M14 melanoma
# [49] = tested on: SR leukemia
# [50] = tested on: RPMI-8226 leukemia
# [51] = tested on: U251 CNS
# [52] = tested on: MOLT-4 leukemia
# [53] = tested on: OVCAR-3 ovarian
# [54] = tested on: MALME-3M melanoma
# [55] = tested on: LOX IMVI melanoma
# [56] = tested on: HL-60(TB) leukemia
# [57] = tested on: CCRF-CEM leukemia
# [58] = tested on: NCI-H522 lung
# [59] = tested on: HS 578T breast
compound,measurement,setting,value
COc1ccc(/C=C2/SC(c3ccc(Cl)cc3)N(NC(=O)CCCCCCCCC(=O)NN3C(=O)/C(=C\c4ccc(OC)c(OC)c4)SC3c3ccc(Cl)cc3)C2=O)cc1OC (stereo not given),TGI,[1],> 100 µM
same,TGI,[2],> 100 µM
same,TGI,[3],> 100 µM
same,TGI,[4],85.5 µM
same,TGI,[5],> 100 µM
same,TGI,[6],82.1 µM
same,TGI,[7],57.9 µM
same,TGI,[8],> 100 µM
same,TGI,[9],> 100 µM
same,TGI,[10],70.7 µM
same,TGI,[11],> 100 µM
same,TGI,[12],> 100 µM
same,TGI,[13],> 100 µM
same,TGI,[14],89.3 µM
same,TGI,[15],> 100 µM
same,TGI,[16],> 100 µM
same,TGI,[17],> 100 µM
same,TGI,[18],76.8 µM
same,TGI,[19],> 100 µM
same,TGI,[20],> 100 µM
same,TGI,[21],> 100 µM
same,TGI,[22],> 100 µM
same,TGI,[23],48.8 µM
same,TGI,[24],> 100 µM
same,TGI,[25],98.4 µM
same,TGI,[26],59.8 µM
same,TGI,[27],> 100 µM
same,TGI,[28],> 100 µM
same,TGI,[29],> 100 µM
same,TGI,[30],> 100 µM
same,TGI,[31],> 100 µM
same,TGI,[32],> 100 µM
same,TGI,[33],> 100 µM
same,TGI,[34],> 100 µM
same,TGI,[35],> 100 µM
same,TGI,[36],47.1 µM
same,TGI,[37],> 100 µM
same,TGI,[38],> 100 µM
same,TGI,[39],> 100 µM
same,TGI,[40],> 100 µM
same,TGI,[41],> 100 µM
same,TGI,[42],59.9 µM
same,TGI,[43],> 100 µM
same,TGI,[44],> 100 µM
same,TGI,[45],78.7 µM
same,TGI,[46],> 100 µM
same,TGI,[47],> 100 µM
same,TGI,[48],> 100 µM
same,TGI,[49],> 100 µM
same,TGI,[50],> 100 µM
same,TGI,[51],> 100 µM
same,TGI,[52],> 100 µM
same,TGI,[53],> 100 µM
O=C1/C(=C/c2ccco2)N=C(c2ccccc2)N1c1ccc(S(=O)(=O)Nc2nccs2)cc1,TGI,[1],> 100 µM
same,TGI,[2],> 100 µM
same,TGI,[54],> 100 µM
same,TGI,[3],> 100 µM
same,TGI,[4],> 100 µM
same,TGI,[5],> 100 µM
same,TGI,[55],> 100 µM
same,TGI,[7],> 100 µM
same,TGI,[8],> 100 µM
same,TGI,[9],> 100 µM
same,TGI,[10],> 100 µM
same,TGI,[11],> 100 µM
same,TGI,[12],> 100 µM
same,TGI,[13],> 100 µM
same,TGI,[14],> 100 µM
same,TGI,[15],> 100 µM
same,TGI,[16],> 100 µM
same,TGI,[17],> 100 µM
same,TGI,[18],> 100 µM
same,TGI,[19],> 100 µM
same,TGI,[20],89.5 µM
same,TGI,[21],> 100 µM
same,TGI,[22],> 100 µM
same,TGI,[23],> 100 µM
same,TGI,[24],> 100 µM
same,TGI,[56],> 100 µM
same,TGI,[25],> 100 µM
same,TGI,[26],> 100 µM
same,TGI,[28],> 100 µM
same,TGI,[29],> 100 µM
same,TGI,[30],> 100 µM
same,TGI,[31],> 100 µM
same,TGI,[32],> 100 µM
same,TGI,[57],> 100 µM
same,TGI,[33],> 100 µM
same,TGI,[34],> 100 µM
same,TGI,[35],> 100 µM
same,TGI,[36],> 100 µM
same,TGI,[58],> 100 µM
same,TGI,[37],> 100 µM
same,TGI,[38],> 100 µM
same,TGI,[39],> 100 µM
same,TGI,[40],94.5 µM
same,TGI,[41],> 100 µM
same,TGI,[42],> 100 µM
same,TGI,[43],> 100 µM
same,TGI,[44],> 100 µM
same,TGI,[45],> 100 µM
same,TGI,[46],> 100 µM
same,TGI,[48],> 100 µM
same,TGI,[49],> 100 µM
same,TGI,[50],> 100 µM
same,TGI,[51],> 100 µM
same,TGI,[52],> 100 µM
same,TGI,[53],> 100 µM
Cc1nnc2n1-c1ccccc1-c1[nH]c3ccccc3c1C2,TGI,[1],> 100 µM
same,TGI,[2],> 100 µM
same,TGI,[54],> 100 µM
same,TGI,[3],> 100 µM
same,TGI,[4],> 100 µM
same,TGI,[5],> 100 µM
same,TGI,[55],> 100 µM
same,TGI,[6],78.2 µM
same,TGI,[7],> 100 µM
same,TGI,[8],> 100 µM
same,TGI,[9],> 100 µM
same,TGI,[10],> 100 µM
same,TGI,[11],> 100 µM
same,TGI,[12],> 100 µM
same,TGI,[14],> 100 µM
same,TGI,[15],> 100 µM
same,TGI,[16],> 100 µM
same,TGI,[17],> 100 µM
same,TGI,[18],> 100 µM
same,TGI,[19],> 100 µM
same,TGI,[20],> 100 µM
same,TGI,[22],> 100 µM
same,TGI,[23],> 100 µM
same,TGI,[24],> 100 µM
same,TGI,[56],70.8 µM
same,TGI,[25],> 100 µM
same,TGI,[26],> 100 µM
same,TGI,[27],> 100 µM
same,TGI,[28],> 100 µM
same,TGI,[29],> 100 µM
same,TGI,[30],> 100 µM
same,TGI,[31],> 100 µM
same,TGI,[32],> 100 µM
same,TGI,[57],> 100 µM
same,TGI,[33],> 100 µM
same,TGI,[34],61.7 µM
same,TGI,[36],> 100 µM
same,TGI,[37],> 100 µM
same,TGI,[38],> 100 µM
same,TGI,[39],> 100 µM
same,TGI,[41],> 100 µM
same,TGI,[42],> 100 µM
same,TGI,[43],> 100 µM
same,TGI,[44],> 100 µM
same,TGI,[45],> 100 µM
same,TGI,[46],> 100 µM
same,TGI,[47],> 100 µM
same,TGI,[48],> 100 µM
same,TGI,[59],> 100 µM
same,TGI,[49],> 100 µM
same,TGI,[50],> 100 µM
same,TGI,[52],> 100 µM
same,TGI,[53],> 100 µM
CC1(C)Cc2c(cnn2-c2ccc(C(F)(F)F)cc2)-c2nc(-c3ccc(O)cc3)[nH]c21,TGI,[1],29.2 µM
same,TGI,[2],33.2 µM
same,TGI,[54],29.7 µM
same,TGI,[3],38.6 µM
same,TGI,[5],70.2 µM
same,TGI,[55],43 µM
same,TGI,[6],43.7 µM
same,TGI,[7],39.6 µM
same,TGI,[8],35.3 µM
same,TGI,[9],37.8 µM
same,TGI,[10],15.6 µM
same,TGI,[11],17.4 µM
same,TGI,[12],45 µM
same,TGI,[13],28.5 µM
same,TGI,[14],31 µM
same,TGI,[15],31.8 µM
same,TGI,[16],40.7 µM
same,TGI,[17],28.5 µM
same,TGI,[18],12.6 µM
same,TGI,[19],58.2 µM
same,TGI,[20],34.4 µM
same,TGI,[21],30 µM
same,TGI,[22],33.9 µM
same,TGI,[23],45.1 µM
same,TGI,[24],34.6 µM
same,TGI,[56],23 µM
same,TGI,[25],38.6 µM
same,TGI,[26],40.1 µM
same,TGI,[27],86.1 µM
same,TGI,[28],39.1 µM
same,TGI,[29],28.4 µM
same,TGI,[30],51.5 µM
same,TGI,[31],30.7 µM
same,TGI,[32],31.6 µM
same,TGI,[57],11.2 µM
same,TGI,[33],52.3 µM
same,TGI,[34],21 µM
same,TGI,[36],41.2 µM
same,TGI,[58],26.2 µM
same,TGI,[37],38.5 µM
same,TGI,[38],34 µM
same,TGI,[39],35.6 µM
same,TGI,[40],25.8 µM
same,TGI,[41],36.2 µM
same,TGI,[42],38 µM
same,TGI,[43],33.3 µM
same,TGI,[44],28.5 µM
same,TGI,[45],42.9 µM
same,TGI,[46],45.3 µM
same,TGI,[47],30.9 µM
same,TGI,[48],33.9 µM
same,TGI,[49],28.7 µM
same,TGI,[51],25.2 µM
same,TGI,[52],22.7 µM
same,TGI,[53],29.4 µM
CC(=O)OCC1OC(N2C(=O)NC(=O)C3C=C4CCCCC4=CC32)C(OC(C)=O)C1OC(C)=O (stereo not given),TGI,[1],> 100 µM
same,TGI,[2],> 100 µM
same,TGI,[54],> 100 µM
same,TGI,[3],> 100 µM
same,TGI,[4],> 100 µM
same,TGI,[5],> 100 µM
same,TGI,[55],> 100 µM
same,TGI,[6],> 100 µM
same,TGI,[8],> 100 µM
same,TGI,[9],> 100 µM
same,TGI,[10],> 100 µM
same,TGI,[13],> 100 µM
same,TGI,[14],> 100 µM
same,TGI,[15],> 100 µM
same,TGI,[16],> 100 µM
same,TGI,[20],> 100 µM
same,TGI,[21],> 100 µM
same,TGI,[23],> 100 µM
same,TGI,[24],> 100 µM
same,TGI,[56],> 100 µM
same,TGI,[25],> 100 µM
same,TGI,[26],> 100 µM
same,TGI,[27],> 100 µM
same,TGI,[28],> 100 µM
same,TGI,[29],> 100 µM
same,TGI,[30],> 100 µM
same,TGI,[31],> 100 µM
same,TGI,[32],> 100 µM
same,TGI,[57],> 100 µM
same,TGI,[35],> 100 µM
same,TGI,[36],> 100 µM
same,TGI,[58],> 100 µM
same,TGI,[37],> 100 µM
same,TGI,[38],> 100 µM
same,TGI,[39],> 100 µM
same,TGI,[40],> 100 µM
same,TGI,[41],> 100 µM
same,TGI,[42],> 100 µM
same,TGI,[43],> 100 µM
same,TGI,[44],> 100 µM
same,TGI,[45],> 100 µM
same,TGI,[46],> 100 µM
same,TGI,[47],> 100 µM
same,TGI,[48],> 100 µM
same,TGI,[49],> 100 µM
same,TGI,[50],> 100 µM
same,TGI,[51],> 100 µM
same,TGI,[52],> 100 µM
same,TGI,[53],> 100 µM
